Drawing on patent US20260034094A1, “COMPOSITIONS AND METHODS FOR INDUCING FERROPTOSIS” (Kojin Therapeutics, Inc., priority 2022, published 2026), this text covers IC50 and EC50 for 42 molecules.

One may read the IC50 as the concentration that gives 50% inhibition. The term EC50 denotes the concentration that produces a half-maximal response.

Like-named read-outs stand apart in the source and are kept apart here.

In assay [1] the target is human recombinant GCL (Homo sapiens (Human), UniProt P48506). As to the kind of experiment: GCL enzyme profiling assay (ADP-Glo luminescence). It is filed as biochemical. The settings on record: read-out: GCL IC50. Summed up: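 IC50 fitted by four-parameter logistic to luminescent ADP formation (ADP-Glo). Reaction at room temperature in HEPES pH 7.5 with 30 mM MgCl2, 0.2% F-127, 1% DMSO; 5 nM GCL and 0.6 mM ATP preincubated 1 h before adding 1 mM glutamate plus 1.2 mM α-aminobutyrate for 2 h.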
human recombinant GCL, sequence (P48506 whole entry): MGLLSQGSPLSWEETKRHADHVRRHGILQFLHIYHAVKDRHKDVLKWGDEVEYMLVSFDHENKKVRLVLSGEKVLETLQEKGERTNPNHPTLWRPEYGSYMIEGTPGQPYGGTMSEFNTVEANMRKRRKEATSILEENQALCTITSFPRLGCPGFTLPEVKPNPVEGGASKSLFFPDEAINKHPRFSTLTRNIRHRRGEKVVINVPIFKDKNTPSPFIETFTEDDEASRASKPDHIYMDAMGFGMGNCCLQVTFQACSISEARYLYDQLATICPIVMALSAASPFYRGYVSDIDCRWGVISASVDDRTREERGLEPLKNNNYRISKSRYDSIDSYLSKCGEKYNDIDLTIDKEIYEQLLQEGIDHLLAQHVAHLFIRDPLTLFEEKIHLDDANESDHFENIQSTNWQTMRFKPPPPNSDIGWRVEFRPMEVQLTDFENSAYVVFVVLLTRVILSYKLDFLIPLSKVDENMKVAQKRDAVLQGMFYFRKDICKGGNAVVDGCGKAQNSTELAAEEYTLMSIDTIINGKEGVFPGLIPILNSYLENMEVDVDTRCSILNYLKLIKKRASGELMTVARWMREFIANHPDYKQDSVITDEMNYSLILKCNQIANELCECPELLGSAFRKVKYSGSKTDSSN
On the technique in general: In ADP-Glo the light output rises with the ADP produced.

Assay [2] concerns RKN cells. Kind of assay: RKN cell profiling assay (cell viability, CellTiter-Glo). The format is cell-based. The following applies: read-out: Cell Killing EC50. Summed up:
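Viability read by CellTiter-Glo luminescence after 96 h compound exposure (0.5% DMSO final) of cells plated at 1,000/well in 10% FBS F-12 and allowed 24 h attachment. Four-parameter fits gave EC50; rescue arms used ferrostatin-1, 1.5 μM, present from seeding.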
On the technique in general: ATP-based viability assays read luminescence as a measure of living cells.

The mark [3] stands for this setting: human recombinant GCL 5 nM, 1 h preincubation with ATP.

As for `CC(=O)Nc1ccc(C(O)(CCS(=N)(=O)CC[C@H](N)C(=O)O)C(F)(F)F)cc1` (stereo partly drawn) [compound 506], in assay [1] (human recombinant GCL, ADP-Glo), the IC50 was 0.02 to 2 mM. The EC50 in assay [2] (cell viability) is less than 1 mM.
The like results for `N=[S@](=O)(CC[C@H](N)C(=O)O)CCC1(c2ccccn2)CCC1` [compound 389] were, in that order, more than 2 mM and not below 1 mM.
On to `CC(C)OC(=O)[C@@H](N)CCS(=N)(=O)CCCC(F)(F)F` (stereo partly drawn) [Compound 88], for which, in assay [1] (setting [3]), the IC50 was 0.02 to 2 mM. Moreover, in assay [2] (96 h, 96 h exposure), the EC50 is less than 1 mM.
On to `CCCCOC(=O)[C@@H](N)CCS(=N)(=O)CCc1ccccc1C(F)(F)F` (stereo partly drawn) [Compound 94], for which the IC50 in assay [1] (setting [3]) was in the range of 0.02 to 2 mM. Further, the EC50 in assay [2] (96 h, 96 h exposure) was less than 1 mM.
On to `N=S(=O)(CCC(n1ccc(-c2ccccn2)n1)C(F)(F)F)CC[C@H](N)C(=O)O` (stereo partly drawn) [Compound 415], for which the concentration for half-maximal inhibition (IC50) in assay [1] (human recombinant GCL, ADP-Glo) lay within 0.02 to 2 mM. In addition, the EC50 in assay [2] (cell viability) is not below 1 mM.
Take `N=S(=O)(CC[C@H](N)C(=O)O)CCC1(O)[C@H]2C[C@@H]3C[C@@H](C[C@H]1C3)C2` (stereo partly drawn) [Compound 302]: the IC50 in assay [1] (human recombinant GCL, ADP-Glo) lay within 0.02 to 2 mM. In addition, the half-maximal effective concentration (EC50) in assay [2] (cell viability) was not below 1 mM.
Regarding `N=S(=O)(CCC1COC1)CC[C@H](N)C(=O)O` (stereo partly drawn) [Compound 181], the IC50 in assay [1] (setting [3]) lay within 0.02 to 2 mM. In assay [2] (96 h, 96 h exposure), the EC50 is not below 1 mM.
Taken in the same sequence, the figures for `CC#CCS(=N)(=O)CC[C@H](N)C(=O)O` (stereo partly drawn) [Compound 144] were 0.02 to 2 mM and not below 1 mM.
For `N=S(=O)(CCC(C1CCC1)C(F)(F)F)CC[C@H](N)C(=O)O` (stereo partly drawn) [Compound 383], the half-maximal inhibitory concentration (IC50) in assay [1] (human recombinant GCL, ADP-Glo) was not above 0.02 mM. For the same molecule, the EC50 in assay [2] (cell viability) is not below 1 mM.
As for `N=S(=O)(CCc1cccc(Cl)c1Cl)CC[C@H](N)C(=O)O` (stereo partly drawn) [Compound 25], the IC50 in assay [1] (setting [3]) was in the range of 0.02 to 2 mM. In assay [2] (96 h, 96 h exposure), the EC50 is not below 1 mM.
Taken in the same sequence, the figures for `N=[S@@](=O)(CC[C@H](N)C(=O)O)CC[C@@H](c1ccccc1)C(F)(F)F` [Compound 61] were not above 0.02 mM and less than 1 mM.
For the molecule `N#Cc1ccc(-c2ccc(C(CCS(=N)(=O)CC[C@H](N)C(=O)O)C(F)(F)F)cc2)cn1` (stereo partly drawn) [Compound 244], in assay [1] (human recombinant GCL, ADP-Glo), the IC50 was not above 0.02 mM. Further, the half-maximal effective concentration (EC50) in assay [2] (cell viability) was not below 1 mM.
For `N=S(=O)(CCCC(F)(F)F)CC[C@H](N)C(=O)OCc1ccccc1` (stereo partly drawn) [Compound 86], the IC50 in assay [1] (setting [3]) lay in the range of 0.02 to 2 mM. For the same molecule, in assay [2] (96 h, 96 h exposure), the EC50 was less than 1 mM.
`C[C@@](O)(CCS(=N)(=O)CC[C@H](N)C(=O)O)C(F)(F)F` (single isomer, unassigned) [Compound 322]: the IC50 in assay [1] (human recombinant GCL, ADP-Glo) was not above 0.02 mM. The EC50 in assay [2] (cell viability) is less than 1 mM.
`N=S(=O)(CC[C@H](N)C(=O)O)CCC(O)(c1ccc(-c2ccc(O)c(F)c2)cc1)C(F)(F)F` (stereo partly drawn) [Compound 453]: the IC50 in assay [1] (human recombinant GCL, ADP-Glo) was not above 0.02 mM. In addition, the EC50 in assay [2] (cell viability) was not below 1 mM.
In the case of `COC(C)(C)CCS(=N)(=O)CC[C@H](N)C(=O)O` (stereo partly drawn) [Compound 158], in assay [1] (setting [3]), the IC50 lay in the range of 0.02 to 2 mM. Further, the EC50 in assay [2] (96 h, 96 h exposure) was less than 1 mM.
For `N=[S@SP2](=O)(CCC(N)C(=O)O)CCC(c1ccc(-c2ccccc2)cc1)(C(F)(F)F)C(F)(F)F` (stereo not drawn) [compound 509], in assay [1] (human recombinant GCL, ADP-Glo), the IC50 is not above 0.02 mM. Further, the EC50 in assay [2] (cell viability) was not below 1 mM.
As for `CCCCS(=N)(=O)CC[C@H](NC)C(=O)O` (stereo partly drawn) [Compound 159], in assay [1] (setting [3]), the IC50 was more than 2 mM. In addition, in assay [2] (96 h, 96 h exposure), the EC50 is not below 1 mM.
Taken in the same sequence, the figures for `N=S(=O)(CCC1CCCC1)CC[C@H](N)C(=O)O` (stereo partly drawn) [Compound 141] were not above 0.02 mM and less than 1 mM.
The like results for `CC(C)(CCS(=N)(=O)CC[C@H](N)C(=O)O)n1cc(-c2ccccc2)nn1` (stereo partly drawn) [Compound 207, (2S)-2-amino-4-(3-methyl-3-(4-phenyl-1H-1,2,3-triazol-1-yl)butylsulfonimidoyl)butanoic acid] were, in that order, 0.02 to 2 mM and not below 1 mM.
As to `N=S(=O)(CCc1ccccc1F)CC[C@H](N)C(=O)O` (stereo partly drawn) [Compound 23], the IC50 in assay [1] (setting [3]) was 0.02 to 2 mM. Further, in assay [2] (96 h, 96 h exposure), the EC50 was not below 1 mM.
Turning to `N#CC1(CCS(=N)(=O)CC[C@H](N)C(=O)O)CC1` (stereo partly drawn) [Compound 151], the half-inhibitory concentration (IC50) in assay [1] (setting [3]) lay in the range of 0.02 to 2 mM. Also, the concentration for a half-maximal effect (EC50) in assay [2] (96 h, 96 h exposure) is not below 1 mM.
With `CCCCOC(=O)[C@@H](N)CC[S@@](=N)(=O)CCCC(F)(F)F` [Compound 90], the IC50 in assay [1] (setting [3]) was in the range of 0.02 to 2 mM. Besides, in assay [2] (96 h, 96 h exposure), the EC50 was less than 1 mM.
`COCC(C)(C)CCS(=N)(=O)CC[C@H](N)C(=O)O` (stereo partly drawn) [Compound 321]: in assay [1] (human recombinant GCL, ADP-Glo), the IC50 fell in the range of 0.02 to 2 mM. For the same molecule, in assay [2] (cell viability), the concentration for a half-maximal effect (EC50) is less than 1 mM.
With `N=S(=O)(CCCc1ccccc1)CC[C@H](N)C(=O)O` (stereo partly drawn) [Compound 51], in assay [1] (setting [3]), the IC50 was in the range of 0.02 to 2 mM. Also, the EC50 in assay [2] (96 h, 96 h exposure) is not below 1 mM.
On to `N=S(=O)(CC[C@H](N)C(=O)O)CCC(O)(C1CCCCC1)C(F)(F)F` (stereo partly drawn) [Compound 355], for which, in assay [1] (human recombinant GCL, ADP-Glo), the IC50 was 0.02 to 2 mM. In assay [2] (cell viability), the EC50 is not below 1 mM.
Turning to `Cc1cnn(C(CCS(=N)(=O)CC[C@H](N)C(=O)O)C(F)(F)F)n1` (stereo partly drawn) [Compound 406], the IC50 in assay [1] (human recombinant GCL, ADP-Glo) is not above 0.02 mM. For the same molecule, the EC50 in assay [2] (cell viability) was less than 1 mM.
In the case of `N=S(=O)(CC[C@H](N)C(=O)O)CCC1(F)CCC1` (stereo partly drawn) [Compound 173], the IC50 in assay [1] (setting [3]) was 0.02 to 2 mM. In addition, the EC50 in assay [2] (96 h, 96 h exposure) was less than 1 mM.
Taken in the same sequence, the figures for `CCCCOC(=O)[C@@H](N)CCS(=N)(=O)CCC(C)(C)c1ccccc1` (stereo partly drawn) [Compound 87] were 0.02 to 2 mM and less than 1 mM.
As to `CC(C)(C)OC(=O)[C@@H](N)CC[S@](=N)(=O)CC[C@@H](O)C(F)(F)F` [Compound 492], the IC50 in assay [1] (human recombinant GCL, ADP-Glo) was more than 2 mM. In addition, the EC50 in assay [2] (cell viability) was not below 1 mM.
Turning to `CCC(CC(F)(F)F)CS(=N)(=O)CC[C@H](N)C(=O)O` (stereo partly drawn) [Compound 172], the IC50 in assay [1] (setting [3]) lay in the range of 0.02 to 2 mM. For the same molecule, the EC50 in assay [2] (96 h, 96 h exposure) was not below 1 mM.
`Cc1cccc(C(C)(C)CCS(=N)(=O)CC[C@H](N)C(=O)O)c1` (stereo partly drawn) [Compound 57]: the IC50 in assay [1] (setting [3]) lay within 0.02 to 2 mM. Further, the EC50 in assay [2] (96 h, 96 h exposure) is not below 1 mM.
Consider `N[C@@H](CCS(=O)(=O)CCC(O)(c1ccsn1)C(F)(F)F)C(=O)O` (stereo partly drawn) [Compound 371], for which the IC50 in assay [1] (human recombinant GCL, ADP-Glo) is not above 0.02 mM. Besides, the EC50 in assay [2] (cell viability) was less than 1 mM.
The like results for `CCOc1cccc(-c2ccc(C(O)(CCS(=N)(=O)CC[C@H](N)C(=O)O)C(F)(F)F)cc2)c1` (stereo partly drawn) [Compound 451] were, in that order, not above 0.02 mM and less than 1 mM.
Taken in the same sequence, the figures for `N=S(=O)(CCC(n1ccc(-c2ccccc2)n1)C(F)(F)F)CC[C@H](N)C(=O)O` (stereo partly drawn) [Compound 416] were not above 0.02 mM and not below 1 mM.
Regarding `N=S(=O)(CC[C@H](N)C(=O)O)CCC1(O)CC(F)(F)C1` (stereo partly drawn) [Compound 303], the half-inhibitory concentration (IC50) in assay [1] (human recombinant GCL, ADP-Glo) fell in the range of 0.02 to 2 mM. The EC50 in assay [2] (cell viability) is less than 1 mM.
The like results for `N=S(=O)(CCC(c1ccc(C#Cc2ccccc2)cc1)C(F)(F)F)CC[C@H](N)C(=O)O` (stereo partly drawn) [Compound 215, (2S)-2-amino-4-(4,4,4-trifluoro-3-(4-(phenylethynyl)phenyl)butylsulfonimidoyl)butanoic acid] were, in that order, not above 0.02 mM and less than 1 mM.
For the molecule `N=S(=O)(CCC(c1ccc(-c2cc(F)ccc2O)cc1)C(F)(F)F)CC[C@H](N)C(=O)O` (stereo partly drawn) [Compound 232], in assay [1] (human recombinant GCL, ADP-Glo), the IC50 was not above 0.02 mM. Also, in assay [2] (cell viability), the EC50 was less than 1 mM.
With `N=S(=O)(CCC(c1ccc(-c2cc(F)ccc2Cl)cc1)C(F)(F)F)CC[C@H](N)C(=O)O` (stereo partly drawn) [Compound 238], the IC50 in assay [1] (human recombinant GCL, ADP-Glo) is not above 0.02 mM. Besides, in assay [2] (cell viability), the EC50 is less than 1 mM.
For the molecule `N=S(=O)(CCCCc1ccccc1)CC[C@H](N)C(=O)O` (stereo partly drawn) [Compound 52], in assay [1] (setting [3]), the IC50 was in the range of 0.02 to 2 mM. Besides, in assay [2] (96 h, 96 h exposure), the EC50 is not below 1 mM.
Taken in the same sequence, the figures for `N=S(=O)(CCOC(F)F)CC[C@H](N)C(=O)O` (stereo partly drawn) [Compound 170] were 0.02 to 2 mM and not below 1 mM.
In the case of `COCCOC(=O)[C@@H](N)CCS(=N)(=O)CCCC(F)(F)F` (stereo partly drawn) [Compound 83], the IC50 in assay [1] (setting [3]) lay within 0.02 to 2 mM. The EC50 in assay [2] (96 h, 96 h exposure) is less than 1 mM.
